Measured values as given in PubChem BioAssay AID588607 (Sanford-Burnham Center for Chemical Genomics, 2011).
Active and inactive are the calls of the source.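 How the source made its calls: active means mean EC50 below 100 µM; inactive means the rest.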

Target: placental alkaline phosphatase (human)
Experiment: placental alkaline phosphatase activators or inhibitors – biochemical, human PLAP, set 2, selectivity assay for mouse IAP activator project, SAR follow-up (AID 588607)
Details: purified PLAP, CDP-Star luminescence, 30 min

SMILES | IC50 (inhibition of PLAP activity) [µM] | EC50
CN(C)S(=O)(=O)c1cccc(NC(=S)NCCN2CCCC2)c1 |  | > 100 µM (inactive)
CC1CCN(S(=O)(=O)c2ccc(NC(=S)NC(c3ccccc3)c3ccccc3)cc2)CC1 | 47.2 | 
CCN(CC)S(=O)(=O)c1ccc(NC(=S)NCC(c2ccccc2)c2ccccc2)cc1 | 30.1 | 
O=c1c2ccccc2[nH]c(=S)n1-c1cccc(S(=O)(=O)N2CCCC2)c1 |  | > 100 µM (inactive)
CN(C)S(=O)(=O)c1cccc(NC(=S)NC(c2ccccc2)c2ccccc2)c1 | 31.2 | 
CN(C)S(=O)(=O)c1ccc(NC(=S)NCC(c2ccccc2)c2ccccc2)cc1 | 40.8 | 
CN(C)S(=O)(=O)c1cccc(NC(=S)NCCc2ccccc2)c1 | 86.6 | 
CN(CCc1ccccn1)C(=S)Nc1cccc(S(=O)(=O)N(C)C)c1 |  | > 100 µM (inactive)
Cc1ccc(CNC(=S)Nc2cccc(S(=O)(=O)N(C)C)c2)cc1 | 82.8 | 
CN(C)S(=O)(=O)c1cccc(NC(=S)NCCC(c2ccccc2)c2ccccc2)c1 | 93 | 
CN(C)S(=O)(=O)c1cccc(NC(=S)NC(C)(C)CC(C)(C)C)c1 | 85.7 | 
O=C(NC(=S)Nc1cc(S(=O)(=O)N2CCOCC2)ccc1N1CCOCC1)c1ccco1 |  | > 100 µM (inactive)
CC(CNC(=S)Nc1cccc(S(=O)(=O)N(C)C)c1)N1CCN(c2ccccc2)CC1 (stereo unspecified) |  | > 100 µM (inactive)
CN(C)S(=O)(=O)c1ccc(NC(=S)NC(c2ccccc2)c2ccccc2)cc1 | 29 | 
Cc1ccccc1CNC(=S)Nc1ccc(S(=O)(=O)N(C)C)cc1 | 71.8 | 
Cc1ccc(S(=O)(=O)N(C)C)cc1NC(=S)NC(=O)C12CC3CC(CC(C3)C1)C2 |  | > 100 µM (inactive)
Cc1ccc(CNC(=S)Nc2ccc(S(=O)(=O)N(C)C)cc2)cc1 | 78.6 | 
CN(C)S(=O)(=O)c1cccc(NC(=S)NCCCN2CCCC2=O)c1 |  | > 100 µM (inactive)
CCN(CC)S(=O)(=O)c1ccc(NC(=S)NC(c2ccccc2)c2ccccc2)cc1 | 26.3 | 
Cc1ccc(S(=O)(=O)N(C)C)cc1NC(=S)NCCCn1ccnc1 |  | > 100 µM (inactive)
O=C(NC(=S)Nc1cc(S(=O)(=O)N2CCOCC2)ccc1O)c1ccco1 | 43.6 | 

SMILES | IC50 (inhibition of PLAP activity) [µM] | EC50
CN(C)S(=O)(=O)c1cccc(NC(=S)NCCCn2ccnc2)c1 |  | > 100 µM (inactive)
CN(CCc1ccccc1)C(=S)Nc1cccc(S(=O)(=O)N(C)C)c1 |  | > 100 µM (inactive)
CCN(CC)c1ccc(C(=O)NC(=S)Nc2cc(S(=O)(=O)N3CCOCC3)ccc2-n2cncn2)cc1 |  | > 100 µM (inactive)
CN(C)CCCNC(=S)Nc1cccc(S(=O)(=O)N(C)C)c1 |  | > 100 µM (inactive)
CN(C)S(=O)(=O)c1ccc(NC(=S)NCc2ccc(Cl)cc2)cc1 |  | > 100 µM (inactive)
CN(C)S(=O)(=O)c1cccc(NC(=S)NCCC(=O)N2CCCC2)c1 |  | > 100 µM (inactive)
CCN(CC)S(=O)(=O)c1ccc(NC(=S)NCCC(c2ccccc2)c2ccccc2)cc1 | 52.5 | 
CC1CC(NC(=S)Nc2cccc(S(=O)(=O)N(C)C)c2)CC(C)N1 (stereo unspecified) |  | > 100 µM (inactive)
CCCCCCC(C)NC(=S)Nc1cc(S(=O)(=O)N(C)C)ccc1C (stereo unspecified) |  | > 100 µM (inactive)
CN(C)S(=O)(=O)c1cccc(NC(=S)NCc2ccc(Cl)cc2)c1 |  | > 100 µM (inactive)
CC(CCc1ccccc1)NC(=S)Nc1cccc(S(=O)(=O)N(C)C)c1 (stereo unspecified) | 69.2 | 
Cc1ccc(S(=O)(=O)N(C)C)cc1NC(=S)NC(C)CCCC(C)C (stereo unspecified) | 66.1 | 
CN(C)S(=O)(=O)c1cccc(NC(=S)NCCc2cccc(O)c2)c1 |  | > 100 µM (inactive)
Cc1ccc(S(=O)(=O)N(C)C)cc1NC(=S)NC1CCN(Cc2ccccc2)CC1 |  | > 100 µM (inactive)
CN(C)S(=O)(=O)c1cccc(NC(=S)NCCc2cccc(Br)c2)c1 | 73 | 
CN(C)S(=O)(=O)c1cccc(NC(=S)NCCc2cccc(F)c2)c1 |  | > 100 µM (inactive)
CCN(CC)CCCNC(=S)Nc1cccc(S(=O)(=O)N(C)C)c1 |  | > 100 µM (inactive)
CN(C)S(=O)(=O)c1ccc(NC(=S)NCCC(c2ccccc2)c2ccccc2)cc1 | 35 | 
Cc1ccc(S(=O)(=O)N(C)C)cc1NC(=S)NC(C)CCC(C)C (stereo unspecified) | 78.5 | 
CN(C)CC(C)(C)CNC(=S)Nc1cccc(S(=O)(=O)N(C)C)c1 |  | > 100 µM (inactive)
CN(C)S(=O)(=O)c1cccc(NC(=S)NCC(c2ccccc2)c2ccccc2)c1 | 35.9 | 

Now from value to compound:

IC50 (inhibition of PLAP activity) [µM] | EC50 | SMILES
91 |  | COc1cccc(CNC(=S)Nc2ccc(S(=O)(=O)N(C)C)cc2)c1
29.6 |  | O=S(=O)(c1ccc(NC(=S)NCC(c2ccccc2)c2ccccc2)cc1)N1CCCCC1
22.1 |  | O=S(=O)(c1ccc(NC(=S)NC(c2ccccc2)c2ccccc2)cc1)N1CCCC1
84.9 |  | O=S(=O)(c1ccc(NC(=S)NCc2cccc(Cl)c2)cc1)N1CCCCC1
19.5 |  | O=S(=O)(c1ccc(NC(=S)NCC(c2ccccc2)c2ccccc2)cc1)N1CCCC1
78.6 |  | COc1cccc(CCNC(=S)Nc2cccc(S(=O)(=O)N(C)C)c2)c1
38.6 |  | O=S(=O)(c1ccc(NC(=S)NCCC(c2ccccc2)c2ccccc2)cc1)N1CCCCC1
89.9 |  | CCOc1cc(CCNC(=S)Nc2ccc(S(=O)(=O)N(C)C)cc2)ccc1OC
 | > 100 µM (inactive) | CN(C)S(=O)(=O)c1cccc(NC(=S)NCCc2ccc(F)cc2)c1
92 |  | CN(C)S(=O)(=O)c1cccc(NC(=S)NCCc2ccc(Br)cc2)c1
 | > 100 µM (inactive) | O=C(CCc1ccccc1)NC(=S)Nc1cccc(S(=O)(=O)N2CCCC2)c1
69.6 |  | COc1ccccc1CNC(=S)Nc1ccc(S(=O)(=O)N(C)C)cc1
81.9 |  | COc1ccc(CCNC(=S)Nc2ccc(S(=O)(=O)N3CCCCC3)cc2)cc1OC
16.6 |  | O=S(=O)(c1ccc(NC(=S)NC(c2ccccc2)c2ccccc2)cc1)N1CCCCC1
57 |  | CN(C)S(=O)(=O)c1ccc(NC(=S)NCCc2cccc(Br)c2)cc1
 | > 100 µM (inactive) | CN(C)S(=O)(=O)c1ccc(NC(=S)NCCc2cccc(O)c2)cc1
78.1 |  | O=S(=O)(c1ccc(NC(=S)NCc2cccc(F)c2)cc1)N1CCCCC1
 | > 100 µM (inactive) | Cc1ccc(C)c(NC(=S)Nc2ccc(S(=O)(=O)N3CCCCC3)cc2)c1
 | > 100 µM (inactive) | CN(C)S(=O)(=O)c1ccc(NC(=S)NCCN2CCCC2)cc1
 | > 100 µM (inactive) | CN(C)S(=O)(=O)c1ccc(NC(=S)NCCc2ccccc2)cc1
70.8 |  | COc1ccc(CCNC(=S)Nc2ccc(S(=O)(=O)N3CCCCC3)cc2)cc1
42 |  | O=S(=O)(c1ccc(NC(=S)NCCC(c2ccccc2)c2ccccc2)cc1)N1CCCC1
31.9 |  | CC1CCN(S(=O)(=O)c2ccc(NC(=S)NCCC(c3ccccc3)c3ccccc3)cc2)CC1
68.6 |  | COc1ccc(CNC(=S)Nc2ccc(S(=O)(=O)N3CCCCC3)cc2)cc1OC
